Take `COC(=O)c1cc(NC(=O)C(C)Cl)cc(C(=O)OC)c1` (configuration not stated): the melting point (as a rule, the temperature of the solid-liquid transition) is 126 to 128 °C.
The result for `CNc1nc(C(=O)O)cs1` reads 204 to 206 °C; that for `NC(=O)N1CCC(=O)CC1`, 137 to 139 °C.
`Nc1ncc(Cc2ccc(S(N)(=O)=O)cc2)s1` registered a melting point of 177 to 179 °C.
Regarding `O=S(=O)(Cl)c1csc(-c2cccc(Br)c2)n1`, the melting point was 94 to 96 °C.
The result for `O=C(O)c1ccccc1NS(=O)(=O)C(F)(F)F` reads 164 to 166 °C; that for `CC(C)Nc1ccc(C#N)cn1`, 99 to 101 °C.
Consider `Nc1ccc(S(=O)(=O)Nc2ccccc2Cl)c(Cl)c1`, for which the melting point was in the range of 239 to 241 °C.
The result for `Nc1cc(-c2ccccc2)nc(N)n1` reads 153 to 155 °C.
The result for `Nc1nccc(-c2ccccc2)n1` reads 162 to 164 °C.
In turn, `O=C(O)C1CCCN(c2ncccc2C(F)(F)F)C1` (configuration not stated) yielded a melting point of 86 to 88 °C.
The result for `COc1ccccc1OCc1ccccc1N` reads 55 to 57 °C; that for `CC(C)c1cc(C(=O)O)nn1-c1ccncc1`, 225 to 227 °C.
On to `CC(=O)c1nnn(-c2cccc3ncccc23)c1C`, for which the melting point was in the range of 116 to 118 °C.
The result for `Cc1cccc(NC(=O)C(Br)C(C)C)c1C` (configuration not stated) reads 150 to 152 °C; that for `Cn1ccnc1C(O)C1CCNCC1` (configuration not stated), 207 to 209 °C; that for `CN(C)c1nc2cc(C#N)ccc2o1`, 203 to 205 °C.
In turn, `N#CCc1c[nH]c2ccc(Cl)cc12` registered a melting point of 104 to 106 °C.
On to `Nc1cnc(C2CC2)nc1`, for which the melting point lay within 169 to 171 °C.
In the case of `CN1CCCCC/C1=N/S(=O)(=O)c1ccc(N)cc1`, the melting point fell in the range of 223 to 225 °C.
Regarding `CN(c1ccc(O)cc1)S(C)(=O)=O`, the melting point was in the range of 129 to 131 °C.
The result for `O=[N+]([O-])c1cc(S(=O)(=O)Cl)ccc1Br` reads 53 to 55 °C; that for `Cc1nn(CC(=O)OC(C)C)c(C)c1C=O`, 104 to 106 °C.
`Nc1ccc(CCN2CCCCC2)cc1` showed a melting point of 54 to 56 °C.
Regarding `COCC(C)NC(N)=O` (configuration not stated), the melting point lay within 73 to 75 °C.
The result for `O=C(O)c1cc(Cl)nc(N2CCCC2)c1` reads 215 to 217 °C.
The result for `Cc1n[nH]c(C)c1S(=O)(=O)N1CCN(C)CC1` reads 187 to 189 °C; that for `CC(C)C1OC(N)=NC1=O` (configuration not stated), 219 to 221 °C; that for `O=C(O)Cn1c(=O)n(C2=CCCCC2)c2ccccc21`, 145 to 147 °C.
The result for `Cc1cc(-c2nnc3ccccn23)ccc1N` reads 180 to 182 °C; that for `O=C(O)c1cccn1CCc1ccccc1`, 119 to 121 °C.
`NS(=O)(=O)C1CCCOC1` (configuration not stated) showed a melting point of 96 to 98 °C.
The compound `Nc1ccc(-c2nc3ccccc3[nH]2)cn1` showed a melting point of 352 to 354 °C.
The result for `O=C(O)c1n[nH]c(=O)c2ccccc12` reads 230 to 232 °C; that for `O=Cc1cn(-c2ccccc2)nc1-c1ccc(-c2nn(-c3ccccc3)cc2C=O)cc1`, 271 to 273 °C; that for `O=C(O)/C(=C\c1cccc(Cl)c1)c1cccs1`, 192 to 194 °C.
The result for `O=C(c1cccc(F)c1)c1cccc(Br)c1` reads 65 to 67 °C; that for `Cc1cc2c(Cl)nccc2o1`, 38 to 40 °C; that for `c1cc(C2CCNCC2)[nH]n1`, 146 to 148 °C.
The result for `Cc1ccc(CC(=O)O)c(Cl)c1` reads 129 to 131 °C; that for `Cc1ccc(CN2CC(C(=O)O)CC2=O)cc1` (configuration not stated), 152 to 156 °C.
Regarding `O=C(O)c1oc2ccccc2c1CSc1nnc[nH]1`, the melting point lay in the range of 159 to 161 °C.
Consider `CS(=O)(=O)c1nc2ccccc2[nH]1`, for which the melting point lay within 188 to 192 °C.
The result for `COc1cc(OC)cc(-n2c(C)c(C)c(C#N)c2N)c1` reads 166 to 168 °C; that for `Cc1[nH]c2ccc(F)cc2c1CC(=O)O`, 180 to 182 °C.
`CCNc1cc(C(=O)O)ccn1` returned a melting point of 291 to 293 °C.
The result for `CC(O)c1ccc2c(c1)Nc1ccccc1S2` (configuration not stated) reads 149 to 151 °C.
The compound `N#CSc1ccc(N)cc1` came in with a melting point of 43 to 56 °C.
The result for `Nc1c(C(=O)O)[nH]c(=O)[nH]c1=O` reads 300 to 302 °C; that for `CCOC(=O)C(C(C)=O)C1CCS(=O)(=O)C1` (configuration not stated), 71 to 80 °C.
As for `O=C(O)CCCN1C(=S)CSC1=S`, the melting point lay in the range of 122 to 124 °C.
Take `CC(C)C(NC1=NS(=O)(=O)c2ccccc21)C(=O)O` (configuration not stated): the melting point lay within 234 to 236 °C.
For `CC(C)(C)OC(=O)Nc1cc(N)ccc1F`, the melting point was 92 to 94 °C.
Regarding `Cc1cccc([N+](=O)[O-])c1S(=O)(=O)Cl`, the melting point lay in the range of 91 to 93 °C.
The result for `Nc1cc(Cl)c(OCC(F)(F)F)c(Cl)c1` reads 89 to 91 °C.
The result for `CCOc1nnc(Cl)c2ccccc12` reads 80 to 82 °C; that for `Nc1cc(Br)c(S(N)(=O)=O)cc1[N+](=O)[O-]`, 268 to 270 °C.
The result for `Cc1cc(Br)c(C)c(S(=O)(=O)Cl)c1` reads 163 to 165 °C; that for `Cc1n[nH]c(C)c1CC(=O)O`, 151 to 155 °C.
As to `CS(=O)(=O)c1cc(C(=O)O)cs1`, the melting point was 204 to 206 °C.
In the case of `Cc1ccc(CNc2ccc3[nH]c(=O)[nH]c3c2)cc1`, the melting point is 271 to 273 °C.
The result for `COC(=O)c1cc(S(=O)(=O)Cl)c(Cl)cc1Cl` reads 110 to 112 °C; that for `CC(C)(C)C(=O)NO`, 169 to 171 °C.
Take `O=C(O)Cc1csc(-c2ccoc2)n1`: the melting point fell in the range of 128 to 130 °C.
`Cc1nnc2[nH]nc(N)c2c1C`: the melting point lay within 264 to 266 °C.
The result for `NNC(=O)Nc1ccc(Br)cc1Cl` reads 163 to 165 °C.
Take `O=[N+]([O-])c1c(Cl)ccc2ncccc12`: the melting point lay within 119 to 121 °C.
The result for `O=C(O)c1cccnc1NC1CCCC1` reads 222 to 224 °C; that for `CC1CCCC(C)N1S(=O)(=O)c1ccc(N)cc1` (configuration not stated), 215 to 217 °C.
The result for `Cc1nn(-c2ccccc2)cc1C(=O)O` reads 192 to 194 °C; that for `OCc1ncc(Br)s1`, 73 to 75 °C.
The result for `Nc1cc(-c2ccccc2)nn1CCO` reads 142 to 144 °C.
The compound `O=C(O)c1cnc(-c2ccc(C(F)(F)F)cc2)s1` returned a melting point of 160 to 162 °C.
The result for `CC(=O)c1sc(-c2ccccc2Br)nc1C` reads 124 to 126 °C; that for `CNc1ccc(F)cc1[N+](=O)[O-]`, 71 to 73 °C.
The result for `Cc1nc(CC(=O)NN)cs1` reads 114 to 116 °C.
The result for `C=CCn1c(S)nc2sc3c(c2c1=O)CCC(C)C3` (configuration not stated) reads 228 to 230 °C; that for `CC(=O)CC(=O)NCCc1ccccc1`, 57 to 59 °C.
`O=C(O)c1ccc(S(=O)(=O)N2CCCc3ccccc32)cc1`: the melting point was in the range of 170 to 172 °C.
For the compound `O=C(O)Cn1ncn2nccc2c1=O`, the melting point fell in the range of 213 to 215 °C.
The result for `Oc1[nH]nc2c1CC(c1ccccc1)CC2` (configuration not stated) reads 269 to 271 °C; that for `CC(C)(C)n1cc(C(=O)O)c(-c2ccc(F)cc2F)n1`, 145 to 147 °C.
The result for `O=C(CN1CCNCC1)Nc1ccccc1Cl` reads 99 to 101 °C; that for `CC(C)(C)c1nc2cc(N)ccc2o1`, 111 to 113 °C; that for `Sc1nc(/C=C/c2ccccc2)n[nH]1`, 277 to 279 °C.
Compound `Cc1nc(Cl)nc(C)c1Cc1ccccc1` came in with a melting point of 42 to 44 °C.
Take `Cc1c(C)c(C)c(S)c(C)c1C`: the melting point fell in the range of 62 to 64 °C.
`O=C(O)c1cc[nH]c(=O)c1` showed a melting point of 299 to 301 °C.
`NNC(=O)C(=O)NCc1ccco1`: the melting point lay within 158 to 160 °C.
Consider `Cc1ccc(-c2nnco2)cc1N`, for which the melting point was 136 to 138 °C.
For `Nc1cc(F)c(Br)cc1N`, the melting point was 104 to 106 °C.
On to `Cc1nc(C(=O)N(C)C)ccc1C(=O)O`, for which the melting point lay in the range of 136 to 138 °C.
The result for `FC(F)(F)c1ccc(-n2nnnc2CCl)cc1` reads 56 to 58 °C.
The result for `CCC(=O)N1CCc2cc(C(=O)O)ccc21` reads 228 to 230 °C; that for `NCC1(CO)CCOCC1`, 54 to 56 °C; that for `Cc1ccc(C)n1-c1sccc1C(=O)O`, 168 to 170 °C.
The result for `O=C(O)C1(Cc2ccccc2)CC2CCC1C2` (configuration not stated) reads 89 to 91 °C; that for `COc1ccc2c(c1)CNC(c1ccccc1)C2` (configuration not stated), 90 to 92 °C; that for `COC(=O)c1c(N)sc2c1CCC2`, 149 to 151 °C.
Take `Cc1ccc(NC(=O)C2(CN)CCCC2)cc1C`: the melting point was 113 to 115 °C.
Take `Nc1ccc2c(c1)CCO2`: the melting point lay in the range of 71 to 73 °C.
`NC(=S)N1CCCCCC1` had a melting point of 151 to 153 °C.
The result for `Cc1ccc2nc(CO)cc(=O)n2c1` reads 171 to 173 °C; that for `Cc1cc(N)n(-c2ccc(C(F)(F)F)cn2)n1`, 119 to 121 °C.
`O=C(NCc1cccs1)c1ccc(-n2ccnc2S)cc1` displayed a melting point of 195 to 197 °C.
`Cc1ccc2c(c1)C(=O)CCC2` came in with a melting point of 28 to 30 °C.
The compound `Cc1cc(CO)ncn1` yielded a melting point of 74 to 76 °C.
The compound `O=C(O)CCc1cc2ccccc2o1` had a melting point of 110 to 112 °C.
`OCc1nc2ccccc2o1`: the melting point was 59 to 61 °C.
The result for `CCOC(O)=C1Nc2ccccc2C1=O` reads 92 to 94 °C.
The result for `Fc1ccccc1-c1nnc(S)n1Cc1ccccc1` reads 90 to 92 °C.
The result for `CCn1c(S)nc2cc(S(=O)(=O)N3CCOCC3)ccc21` reads 227 to 229 °C; that for `CC(C)(C)c1ccccc1OCC(=O)O`, 144 to 148 °C.
`Cc1cnc(O)c([N+](=O)[O-])c1`: the melting point lay in the range of 247 to 249 °C.
In turn, `O=C(O)c1ccc(CS)c(F)c1` gave a melting point of 136 to 138 °C.
In turn, `OC(CNCc1ccccc1)c1ccsc1` (configuration not stated) gave a melting point of 78 to 80 °C.
`Cc1cc(Cl)ncc1O` yielded a melting point of 168 to 170 °C.
`CN1CCCN(c2nc3ccccc3cc2CO)CC1` yielded a melting point of 95 to 97 °C.
With `COC(=O)c1cc(Cl)c(NC(=O)OCC(F)(F)F)cc1OC`, the melting point lay in the range of 100 to 102 °C.
`CCc1nc2ccccc2n1CC#N`: the melting point was in the range of 104 to 106 °C.
`CC(C)(C(=O)O)c1ccc(-c2ccccc2)cc1` yielded a melting point of 173 to 175 °C.
The result for `OC1CCCc2nc(-c3ccccc3)sc21` (configuration not stated) reads 96 to 98 °C.

The values above are taken from a melting point compilation (Tetko et al.).
